Drawing on US20250325677A1, “STAT6 DEGRADERS” (Gilead Sciences, Inc., priority 2024, published 2025), this text covers EC50 and DC50 for 14 compounds.

For one assay, the system named is eotaxin-3 release. Briefly: Human whole blood eotaxin-3 assay (IL-4 stimulated). The class given is cell-based. The settings on record: human whole blood, IL-4 0.4 nM, 48 hours; geometric mean; given for compounds with >80% Emax; read-out: Eotaxin-3 EC50. The gist of the method: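 Human whole blood was preincubated with compound for 120 min at 37 °C, then stimulated with recombinant human IL-4 (E. coli) at 0.4 nM final for 48 h. Inhibition of eotaxin-3 release gave EC50 values.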

In the next assay the target is STAT6 (Homo sapiens (Human), UniProt P42226). Nature of the assay: STAT6 degrader assay (HiBiT, HeLa LgBiT clone 4.14). The settings on record: HeLa LgBiT clone 4.14, 4-24 h; geometric mean; given for compounds with >80% Emax; read-out: STAT6 degradation DC50. The class given is cell-based. A digest of the protocol: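 HeLa LgBiT clone 4.14 cells with HiBiT knocked into endogenous STAT6 were treated with compound for 4-24 h at 37° C. Luminescence after Nano-GLO substrate (0.5 h) measured remaining STAT6; 50 μM terfenadine wells defined 100% degradation, and DC50 (nM) was derived.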
(HiBiT is a short tag that completes a luciferase, so light tracks the accessible tagged protein.)

Molecules are shown by their SMILES.

Sequence of STAT6 (P42226 whole entry): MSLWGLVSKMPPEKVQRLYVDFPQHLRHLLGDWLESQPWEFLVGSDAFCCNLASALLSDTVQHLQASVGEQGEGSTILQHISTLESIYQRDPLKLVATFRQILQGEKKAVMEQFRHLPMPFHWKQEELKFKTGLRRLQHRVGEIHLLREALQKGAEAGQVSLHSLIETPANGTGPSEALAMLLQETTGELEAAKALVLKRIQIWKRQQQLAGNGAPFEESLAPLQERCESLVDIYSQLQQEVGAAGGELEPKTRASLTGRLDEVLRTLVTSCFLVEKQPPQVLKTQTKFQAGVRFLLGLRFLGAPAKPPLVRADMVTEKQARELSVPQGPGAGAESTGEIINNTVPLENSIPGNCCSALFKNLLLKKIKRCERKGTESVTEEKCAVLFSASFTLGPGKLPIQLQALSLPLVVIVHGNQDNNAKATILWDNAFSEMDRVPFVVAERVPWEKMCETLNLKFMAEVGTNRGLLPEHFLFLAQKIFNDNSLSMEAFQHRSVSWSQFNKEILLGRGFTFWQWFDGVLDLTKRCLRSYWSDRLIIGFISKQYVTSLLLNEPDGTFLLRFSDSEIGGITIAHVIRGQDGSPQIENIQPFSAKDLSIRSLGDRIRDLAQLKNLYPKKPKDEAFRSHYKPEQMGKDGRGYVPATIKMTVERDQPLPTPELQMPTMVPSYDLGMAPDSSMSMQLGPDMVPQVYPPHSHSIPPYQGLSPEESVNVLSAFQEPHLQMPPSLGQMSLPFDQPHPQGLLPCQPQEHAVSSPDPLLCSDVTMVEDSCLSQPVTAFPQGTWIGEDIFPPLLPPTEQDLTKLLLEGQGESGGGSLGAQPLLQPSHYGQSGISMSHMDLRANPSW

Take `C[C@H]1CN(Cc2ccc3c(c2)n(C2CC2)c(=O)n3[C@@H]2CCC(=O)NC2=O)CCN1CC1CCN(C(=O)c2ccc(C3CCN([C@@H](C)c4cc5c(-c6ccc(N)nc6)ccnc5n4C)CC3)cc2)CC1` (single isomer, unassigned) [Example 3e51]: the EC50 (in general, the concentration at which the effect is half-maximal) in the assay on eotaxin-3 release stood at 3.1 nM. Also, the DC50 (in general, the midpoint of the concentration-degradation curve) on STAT6 came to 0.8 nM.
For the compound `C[C@@H]1CN(Cc2ccc3c(c2)n(C)c(=O)n3C2CCC(=O)NC2=O)C[C@H](C)N1CC1CCN(C(=O)c2ccc(C3CCN([C@@H](C)c4cc5c(-c6ccc(N)nc6)ccnc5n4C)CC3)cc2)CC1` (stereo partly drawn) [Example 3e18, 3-(5-((4-((1-(4-(1-((S)-1-(4-(6-aminopyridin-3-yl)-1-methyl-1H-pyrrolo[2,3-b]pyridin-2-yl)ethyl)-piperidin-4-yl)benzoyl)piperidin-4-yl)methyl)-3,5-cis-dimethylpiperazin-1-yl)methyl)-3-methyl-2-oxo-2,3-dihydro-1H-benzo[d]imidazol-1-yl)piperidine-2,6-dione], the 50% effective concentration (EC50) in the assay with eotaxin-3 release amounted to 5.5 nM. The DC50 on STAT6 turned out to be 1.4 nM.
In the case of `C[C@@H](c1cc2c(-c3ccc(N)nc3)ccnc2n1C)N1CCC(c2ccc(C(=O)N3CCC(CN4[C@@H](C)CN(Cc5ccc6c(c5)n(C)c(=O)n6C5CCC(=O)NC5=O)C[C@@H]4C)CC3)cc2)CC1` (stereo partly drawn) [Example 3e29, 3-(5-(((3S,5S)-4-((1-(4-(1-((S)-1-(4-(6-aminopyridin-3-yl)-1-methyl-1H-pyrrolo [2,3-b]pyridin-2-yl)ethyl)piperidin-4-yl)benzoyl)piperidin-4-yl)methyl)-3,5-dimethylpiperazin-1l-yl)methyl)-3-methyl-2-oxo-2,3-dihydro-1H-benzo[d]imidazol-1-yl)piperidine-2,6-dione], the EC50 in the assay with eotaxin-3 release amounted to 2.3 nM. Besides, the DC50 at STAT6 came to 0.4 nM.
`COC[C@H]1CN(Cc2ccc3c(c2)n(C)c(=O)n3C2CCC(=O)NC2=O)CCN1CC1CCN(C(=O)c2ccc(C3CCN([C@@H](C)c4cc5c(-c6ccc(N)nc6)ccnc5n4C)CC3)cc2)CC1` (stereo partly drawn) [Example 3e28, 3-(5-(((R)-4-((1-(4-(1-((S)-1-(4-(6-aminopyridin-3-yl)-1-methyl-1H-pyrrolo[2,3-b]pyridin-2-yl)ethyl)piperidin-4-yl)benzoyl)piperidin-4-yl)methyl)-3-(methoxymethyl)piperazin-1-yl)methyl)-3-methyl-2-oxo-2,3-dihydro-1H-benzo[d]imidazol-1-yl)piperidine-2,6-dione]: in the assay on eotaxin-3 release, the EC50 was 1.1 nM. Further, the DC50 on STAT6 turned out to be 0.2 nM.
The corresponding values for `CNc1ccc(-c2ccnc3c2cc(CN2CCC(c4c(F)cc(C(=O)N5CCC(CN6CCN(Cc7ccc8c(c7)C7(CC7)C(=O)N8C7CCC(=O)NC7=O)C[C@@H]6C)CC5)cc4F)CC2)n3C)cn1` (stereo partly drawn) [Example 3h38, 3-(5′-(((S)-4-((1-(3,5-difluoro-4-(1-((1-methyl-4-(6-(methylamino)pyridin-3-yl)-1H-pyrrolo [2,3-b]pyridin-2-yl)methyl)piperidin-4-yl)benzoyl)piperidin-4-yl)methyl)-3-methylpiperazin-1-yl)methyl)-2′-oxospiro[cyclopropane-1,3′-indolin]-1′-yl)piperidine-2,6-dione] are 7.1 nM and 1.7 nM.
For `C[C@H]1CN(Cc2ccc3c(c2)C(C)(C)C(=O)N3[C@@H]2CCC(=O)NC2=O)CCN1CC1CCN(C(=O)c2ccc(C3CCN([C@@H](C)c4cc5c(-c6ccc(N)nc6)ccnc5n4C)CC3)cc2)CC1` [Example 3h32, (R)-3-(5-(((S)-4-((1-(4-(1-((S)-1-(4-(6-aminopyridin-3-yl)-1-methyl-1H-pyrrolo[2,3-b]pyridin-2-yl)ethyl)piperidin-4-yl)benzoyl)piperidin-4-yl)methyl)-3-methylpiperazin-1-yl)methyl)-3,3-dimethyl-2-oxoindolin-1-yl)piperidine-2,6-dione], the EC50 in the assay on eotaxin-3 release is 22.4 nM. The DC50 on STAT6 worked out at 2.9 nM.
As to `CNc1ccc(-c2ccnc3c2cc([C@H](C)N2CCC(c4ccc(C(=O)N5CCC(CN6CCN(Cc7ccc8c(c7)n(C7CC7)c(=O)n8[C@H]7CCC(=O)NC7=O)C[C@@H]6C)CC5)cc4)CC2)n3C)cn1` (single isomer, unassigned) [Example 3h26], the EC50 in the assay with eotaxin-3 release was 3.1 nM. Moreover, the DC50 at STAT6 worked out at 1.4 nM.
Taken in the same sequence, the figures for `C[C@H]1CN(Cc2cc3c(cc2F)n([C@H]2CCC(=O)NC2=O)c(=O)n3C)CCN1CC1CCN(C(=O)c2ccc(C3CCN([C@@H](C)c4cc5c(-c6ccc(N)nc6)ccnc5n4C)CC3)cc2)CC1` (single isomer, unassigned) [Example 3e63] were 1.2 nM and 0.2 nM.
As for `C[C@H]1CN(Cc2cc3c(cc2F)n([C@@H]2CCC(=O)NC2=O)c(=O)n3C)CCN1CC1CCN(C(=O)c2ccc(C3CCN([C@@H](C)c4cc5c(-c6ccc(N)nc6)ccnc5n4C)CC3)cc2)CC1` (single isomer, unassigned) [Example 3e60], the EC50 in the assay with eotaxin-3 release worked out at 1.2 nM. Besides, the DC50 at STAT6 was 0.3 nM.
The corresponding values for `C[C@H]1CN(Cc2cc3c(cc2F)n(C2CCC(=O)NC2=O)c(=O)n3C)CCN1CC1CCN(C(=O)c2ccc(C3CCN([C@@H](C)c4cc5c(-c6ccc(N)nc6)ccnc5n4C)CC3)cc2)CC1` (mixture of isomers) [Example 3e34, 3-(5-(((S)-4-((1-(4-(1-((S)-1-(4-(6-aminopyridin-3-yl)-1-methyl-1H-pyrrolo[2,3-b]pyridin-2-yl)ethyl)piperidin-4-yl)benzoyl)piperidin-4-yl)methyl)-3-methylpiperazin-1-yl)methyl)-6-fluoro-3-methyl-2-oxo-2,3-dihydro-1H-benzo[d]imidazol-1-yl)piperidine-2,6-dione] are 1.8 nM and 0.4 nM.
Take `C[C@H]1CN(Cc2ccc3c(c2)n(C)c(=O)n3[C@@H]2CCC(=O)NC2=O)CCN1CC1CCN(C(=O)c2ccc(C3CCN([C@@H](C)c4cc5c(-c6ccc(N)nc6)ccnc5n4C)CC3)cc2)CC1` (single isomer, unassigned) [Example 3e49]: the EC50 with eotaxin-3 release is 1.4 nM. The DC50 at STAT6 was determined as 0.3 nM.
As for `C[C@H]1CN(Cc2ccc3c(c2)n(C)c(=O)n3[C@H]2CCC(=O)NC2=O)CCN1CC1CCN(C(=O)c2ccc(C3CCN(Cc4cc5c(-c6ccc(N)nc6)ccnc5n4C)CC3)cc2)CC1` (single isomer, unassigned) [Example 3e19], the half-maximal effective concentration (EC50) with eotaxin-3 release was 20.9 nM. Besides, the DC50 on STAT6 is 0.7 nM.
As to `C[C@H]1CN(Cc2ccc3c(c2)n(C)c(=O)n3C2CCC(=O)NC2=O)CCN1CC1(F)CCN(C(=O)c2ccc(C3CCN([C@@H](C)c4cc5c(-c6ccc(N)nc6)ccnc5n4C)CC3)cc2)CC1` (stereo partly drawn) [Example 3e45, 3-(5-(((S)-4-((1-(4-(1-((S)-1-(4-(6-aminopyridin-3-yl)-1-methyl-1H-pyrrolo[2,3-b]pyridin-2-yl)ethyl)piperidin-4-yl)benzoyl)-4-fluoropiperidin-4-yl)methyl)-3-methylpiperazin-1-yl)methyl)-3-methyl-2-oxo-2,3-dihydro-1H-benzo[d]imidazol-1-yl)piperidine-2,6-dione], in the assay on eotaxin-3 release, the EC50 stood at 2.1 nM. In addition, on STAT6, the DC50 is 0.8 nM.
In the case of `C[C@H]1CN(Cc2cc3c(cc2F)n([C@@H]2CCC(=O)NC2=O)c(=O)n3C2CC2)CCN1CC1CCN(C(=O)c2ccc(C3CCN([C@@H](C)c4cc5c(-c6ccc(N)nc6)ccnc5n4C)CC3)cc2)CC1` (single isomer, unassigned) [Example 3e61], the EC50 in the assay on eotaxin-3 release came to 3.5 nM. Also, at STAT6, the DC50 worked out at 1.4 nM.
